Assays:
[1] = Precipitation study of irinotecan with mono- and polyvalent counterion donors; format: physicochemical
Experimental: (§1) To examine the precipitation, therapeutic agent solution(s) and counterion donor(s), or therapeutic agent solution(s) and combination of counterion donors were mixed, followed by vigorous agitation and high speed centrifugation to separate insoluble precipitate and free form therapeutic agent(s). The concentration of the free form therapeutic agent(s) was determined by measuring the corresponding absorbance with a plate reader.
(§2) Various compositions were prepared by mixing 60 mg/mL of irinotecan solution and liposomes with 1 mM to 22.5 mM of dextran sulfate (molecular weight 1,600), or with 300 mM of ammonium sulfate and 1 mM to 22.5 mM of dextran sulfate (molecular weight 1,600), followed by vigorous agitation by vortex and centrifugation at 21,460×g for 30 minutes to separate insoluble precipitate from free-form irinotecan. The volume ratio for mixing the irinotecan solution and the counterion donor solution was 1:2, with the final equivalent counterion donor concentrations shown in Table 13.

[2] = Precipitation study of vinorelbine with mono- and polyvalent counterion donors; format: physicochemical
Experimental: As shown in Example 7, the percentage of encapsulated vinorelbine remaining after plasma incubation is adjustable according to the present invention. The percentage of encapsulated therapeutic agent remaining after plasma incubation can be monitored by precipitation among encapsulated therapeutic agent(s) and counterion donor(s) in the aqueous environment as in FIG. 1, FIG. 5, and FIG. 6. The counterion donors could be selected from monovalent counterion donor(s), polyvalent counterion donor(s), or a combination thereof.
as §1
as §2, with “vinorelbine” for “irinotecan”, “vinorelbine.” for “irinotecan.”, “12.” for “13.”

[3] = AS = 0 mM, DS = 0.67 mM (5.27 mEq/L)
[4] = AS = 0 mM, DS = 2.5 mM (19.68 mEq/L)
[5] = AS = 0 mM, DS = 5 mM (39.35 mEq/L)
[6] = AS = 0 mM, DS = 15 mM (118.05 mEq/L)
[7] = AS = 200 mM, DS = 0 mM (0 mEq/L)
[8] = AS = 200 mM, DS = 0.67 mM (5.27 mEq/L)
[9] = AS = 200 mM, DS = 2.5 mM (19.68 mEq/L)
[10] = AS = 200 mM, DS = 5 mM (39.35 mEq/L)
[11] = AS = 200 mM, DS = 15 mM (118.05 mEq/L)

## CCc1c2c(nc3ccc(OC(=O)N4CCC(N5CCCCC5)CC4)cc13)-c1cc3c(c(=O)n1C2)COC(=O)[C@]3(O)CC [irinotecan]
[1]; AS = 0 mM, DS = 0 mM
  Percentage of free-form CPT11 remaining: 103.4%
[1]; [3]
  Percentage of free-form CPT11 remaining: 82.0%
[1]; AS = 0 mM, DS = 1.6 mM (12.59 mEq/L)
  Percentage of free-form CPT11 remaining: 50.9%
[1]; [4]
  Percentage of free-form CPT11 remaining: 27.3%
[1]; [5]
  Percentage of free-form CPT11 remaining: 2.3%
[1]; [6]
  Percentage of free-form CPT11 remaining: 3.8%
[1]; [7]
  Percentage of free-form CPT11 remaining: 101.1%
[1]; [8]
  Percentage of free-form CPT11 remaining: 83.8%
[1]; AS = 200 mM, DS = 1.6 mM (12.59 mEq/L)
  Percentage of free-form CPT11 remaining: 59.4%
[1]; [9]
  Percentage of free-form CPT11 remaining: 38.3%
[1]; [10]
  Percentage of free-form CPT11 remaining: 9.7%
[1]; [11]
  Percentage of free-form CPT11 remaining: 9.0%
[1]; FIG. 6 left
  visible precipitation with sodium dextran sulfate: precipitation
[1]; FIG. 6 right
  visible precipitation with ammonium sulfate: no visible precipitation
[1]; maximum, at DS of 19.68 mEq/L
  enhancement of free-form irinotecan by ammonium sulfate (as compared to DS alone): up to 11%

## CCC1=C[C@@H]2CN(C1)Cc1c([nH]c3ccccc13)[C@@](C(=O)OC)(c1cc3c(cc1OC)N(C)[C@H]1[C@@](O)(C(=O)OC)[C@H](OC(C)=O)[C@]4(CC)C=CCN5CC[C@]31[C@@H]54)C2 [vinorelbine]
[2]; AS = 0 mM, DS = 0 mM
  Percentage of free-form VNB remaining: 100.7%
[2]; [3]
  Percentage of free-form VNB remaining: 87.1%
[2]; [4]
  Percentage of free-form VNB remaining: 54.0%
[2]; [5]
  Percentage of free-form VNB remaining: 11.0%
[2]; [6]
  Percentage of free-form VNB remaining: 5.4%
[2]; [7]
  Percentage of free-form VNB remaining: 97.6%
[2]; [8]
  Percentage of free-form VNB remaining: 83.3%
[2]; [9]
  Percentage of free-form VNB remaining: 59.0%
[2]; [10]
  Percentage of free-form VNB remaining: 21.2%
[2]; [11]
  Percentage of free-form VNB remaining: 5.7%
[2]; FIG. 5 left
  visible precipitation with sodium dextran sulfate: precipitation
[2]; FIG. 5 right
  visible precipitation with ammonium sulfate: no visible precipitation
[2]; maximum, at DS of 39.35 mEq/L
  enhancement of free-form vinorelbine by ammonium sulfate (as compared to DS alone): up to 10.2%

— patent US11147881B2, “Controlled drug release liposome compositions and methods thereof” (TAIWAN LIPOSOME COMPANY, LTD., priority 2013, dated 2021)
